The text below walks through data of US20240090503A1, “FUNGICIDAL OXADIAZOLES AND THEIR MIXTURES” (FMC CORPORATION, priority 2020, published 2024).

The structures appear in SMILES notation. Read-outs that look alike come from different tables or passages of the source. Marks after values point to notes of the source that are not given here.

Holding throughout (type): in vivo
Test [1] deals with Phakopsora pachyrhizi (the causal agent of Asian soybean rust). Put plainly: Test A: preventive spray on soybean seedlings, Asian soybean rust, visual disease rating. Particulars: for pest or weed control at 10 µg/mL: read-out: Test A disease control rating. Put shortly: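 Compound in acetone/water (50/50) with 250 ppm PEG400 sprayed to run-off on soybean seedlings; inoculated next day with Phakopsora pachyrhizi spores. Held 24 h at 22° C in saturated atmosphere, then 8 days in a 22° C growth chamber before visual rating as % disease control relative to controls.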

The subject of test [2] is Zymoseptoria tritici (the causal agent of wheat leaf blotch). Put plainly: Test B: preventive spray on wheat seedlings, wheat leaf blotch, visual disease rating. Particulars: for Test B disease control rating / pest or weed control at 250 µg/mL: test suspension 250 ppm; for pest or weed control at 100 µg/mL: read-out: Test B disease control rating. An excerpt: General protocol for preparing test suspensions for Tests A-D: the test compounds were first dissolved in acetone in an amount equal to 3% of the final volume and then suspended at the desired concentration (in ppm) in acetone and purified water (50/50 mix by volume) containing 250 ppm of the surfactant PEG400 (polyhydric alcohol esters). The resulting test suspensions were then used in Tests A-D.
The test suspension was sprayed to the point of run-off on wheat seedlings. The following day the seedlings were inoculated with a spore suspension of Zymoseptoria tritici (the causal agent of wheat leaf blotch) and incubated in a saturated atmosphere at 24° C. for 48 h, and then moved to a growth chamber at 20° C. for 17 days, after which time visual disease ratings were made.
The test results for Tests A-C presented in Table A below for compounds of Formula 1 illustrate the fungicidal activity of component (a) contributing to the plant disease control utility of compositions comprising component (a) in combination with component (b) according to the present invention. In the Table, a rating of 100 indicates 100% disease control and a rating of 0 indicates no disease control (relative to the controls). A dash (-) indicates the compound was not tested. The test suspensions were sprayed at the concentration listed in the column “Rate in ppm”, unless otherwise indicated. An asterisk “*” next to the rating indicates a 250 ppm test suspension was used, a double asterisk “**” next to the rating indicates a 100 ppm test suspension was used, and a triple asterisk “***” next to the rating indicates a 50 ppm test suspension was used.

Test [3] deals with Puccinia recondita f. sp. tritici (the causal agent of wheat leaf rust). In words: Test C: preventive spray on wheat seedlings, wheat leaf rust, visual disease rating. To be noted: for Test C disease control rating / pest or weed control at 250 µg/mL: test suspension 250 ppm; for pest or weed control at 10 µg/mL: read-out: Test C disease control rating. The procedure, abridged:
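Wheat seedlings sprayed to run-off with compound in acetone/water (50/50) with 250 ppm PEG400, then inoculated with spores the following day. After 24 h saturated humidity at 20° C. and 6 days in growth chamber at 20° C., disease rated visually as % control relative to untreated controls.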

Where [4] appears, read: Phakopsora pachyrhizi, 216 h, test suspension 10 ppm, soybean seedlings, 100 = 100% disease control, 0 = no control.
Where [5] appears, read: Zymoseptoria tritici, 456 h, test suspension 100 ppm (** next to rating), wheat seedlings.
Where [6] appears, read: Puccinia recondita, 168 h, test suspension 10 ppm, wheat seedlings.
The mark [7] stands for this setting: Phakopsora pachyrhizi, 216 h, test suspension 250 ppm, soybean seedlings.
Where [8] appears, read: Zymoseptoria tritici, 456 h, wheat seedlings.
Where [9] appears, read: Puccinia recondita, 168 h, wheat seedlings.

For the compound `ON=Cc1cnn(Cc2ccc(-c3noc(C(F)(F)F)n3)cc2)c1` (mixture of isomers) [compound 20], the “Test A disease control rating” value in test [1] (test suspension 250 ppm, soybean seedlings) is 100%. The “Test B disease control rating” value in test [2] (wheat seedlings) was 99%. Also, the “Test C disease control rating” value in test [3] (wheat seedlings) is listed as 100%.
As for `CCOC(=O)c1cnn(C(C)c2ccc(-c3noc(C(F)(F)F)n3)cc2)c1` (stereo not drawn) [Compound 2, ethyl 1-[1-[4-[5-(trifluoromethyl)-1,2,4-oxadiazol-3-yl]phenyl]ethyl]-1H-pyrazole-4-carboxylate], the pest or weed control at 10 µg/mL in test [1] (setting [4]) turned out to be 100%; in test [3] (setting [6]) it was 99%. For the same compound, the pest or weed control at 100 µg/mL in test [2] (setting [5]) was 98%.
As to `CN(C)C(=O)C1=NOC(Cc2ccc(-c3noc(C(F)(F)F)n3)cc2)C1` (stereo not drawn) [Compound 12, 4,5-dihydro-N,N-dimethyl-5-[[4-[5-(trifluoromethyl)-1,2,4-oxadiazol-3-yl]phenyl]methyl]-3-isoxazolecarboxamide], the pest or weed control at 255 µg/mL in test [1] (Phakopsora pachyrhizi, 216 h, test suspension 255 ppm, soybean seedlings) was 100%; in test [2] (Zymoseptoria tritici, 456 h, test suspension 255 ppm, wheat seedlings), 98%; in test [3] (Puccinia recondita, 168 h, test suspension 255 ppm, wheat seedlings) it was 100%.
On to `N#CC(Nc1ccccc1)c1ccc(-c2noc(C(F)(F)F)n2)cc1` (stereo not drawn) [Compound 13, α-(phenylamino)-4-[5-(trifluoromethyl)-1,2,4-oxadiazol-3-yl]benzeneacetonitrile], for which the pest or weed control at 250 µg/mL was found to be 100% in test [1] (setting [7]), 85% in test [2] (setting [8]) and 100% in test [3] (setting [9]).
For the compound `COC(=O)c1cnn(Cc2ccc(-c3noc(C(F)(F)F)n3)cc2)c1` [Compound 21, methyl 1-[[4-[5-(trifluoromethyl)-1,2,4-oxadiazol-3-yl]phenyl]methyl]-1H-pyrazole-4-carboxylate], the pest or weed control at 10 µg/mL was found to be 100% in test [1] (Phakopsora pachyrhizi, 216 h) and 100% in test [3] (Puccinia recondita, 168 h). The pest or weed control at 100 µg/mL in test [2] (Zymoseptoria tritici, 456 h) was found to be 97%.
For the compound `N#CCOC(=O)c1cnn(Cc2ccc(-c3noc(C(F)(F)F)n3)cc2)c1` [Compound 57, cyanomethyl 1-[[4-[5-(trifluoromethyl)-1,2,4-oxadiazol-3-yl]phenyl]methyl]-1H-pyrazole-4-carboxylate], the pest or weed control at 10 µg/mL in test [1] (setting [4]) and in test [3] (setting [6]) was 100% in each case. The pest or weed control at 100 µg/mL in test [2] (setting [5]) worked out at 99%.
As to `FC(F)(F)c1nc(-c2ccc(Cn3cc(Br)cn3)s2)no1` [Compound 71, 3-[5-[(4-bromo-1H-pyrazol-1-yl)methyl]-2-thienyl]-5-(trifluoromethyl)-1,2,4-oxadiazole], the pest or weed control at 250 µg/mL in test [1] (setting [7]) turned out to be 100%; in test [2] (setting [8]) it was 36%; in test [3] (setting [9]) it was 100%.
As to `CCOC(=O)c1cnn(Cc2ccc(-c3noc(C(F)(F)F)n3)cc2)c1` [Compound 83, ethyl 1-[[4-[5-(trifluoromethyl)-1,2,4-oxadiazol-3-yl]phenyl]methyl]-1H-pyrazole-4-carboxylate], the pest or weed control at 250 µg/mL in test [1] (setting [7]) was 100%; in test [2] (setting [8]), 79%; in test [3] (setting [9]), 100%.
With `FC(F)(F)c1nc(-c2ccc(Cn3ccc(-c4ccccc4)n3)cc2)no1` [Compound 85], the “Test A disease control rating” value in test [1] (test suspension 50 ppm, soybean seedlings) is given as 100*** %. Moreover, the “Test B disease control rating” value in test [2] (wheat seedlings) came out at 9%. The “Test C disease control rating” value in test [3] (wheat seedlings) is 100%.
In the case of `O=C1c2ccccc2C(=O)N1Cc1ccc(-c2noc(C(F)(F)F)n2)cc1` [Compound 90, 2-[[4-[5-(trifluoromethyl)-1,2,4-oxadiazol-3-yl]phenyl]methyl]-1H-isoindole-1,3(2H)-dione], the pest or weed control at 250 µg/mL worked out at 100% in test [1] (setting [7]), 33% in test [2] (setting [8]) and 99% in test [3] (setting [9]).
As for `N#Cc1cnn(Cc2ccc(-c3noc(C(F)(F)F)n3)cc2)c1` [Compound 95, 1-[[4-[5-(trifluoromethyl)-1,2,4-oxadiazol-3-yl]phenyl]methyl]-1H-pyrazole-4-carbonitrile], the pest or weed control at 250 µg/mL in test [1] (setting [7]) was 100%; in test [2] (setting [8]), 87%; in test [3] (setting [9]), 100%.
